From patent US7645882B2, “Inhibitor of protein modification products formation” (priority 2003, dated 2010)

Tests used:
[1] = tested on: middle cerebral artery ischemia-reperfusion model; experiment: Cerebroprotective action in middle cerebral artery ischemia-reperfusion model; assay type: in vivo, rat; conditions: for rotor rod test, ratio to before occlusion (%), Ave: reperfusion vs before occlusion
Protocol: CD(SD)IGS male rats (Japan Charles river Kabushiki kaisha, Hino farm, room No. 22, specific product) (8 rats per one group) having body weight 270 to 350 g were anesthetized by 2% isoflurane (mixed bas comprising of 70% N2O (laughter gas) and 30% O2) to immobilize, and then the rats were put on warming plate to keep the rectal and brain temperature 37 to 38° C. After that, to observe the stability in the examination, cannula which was made by polyethylene (PE-50, Becton Dickinson) was inserted and left in caudal artery of said animal, and this made blood drawing and blood pressure determining to monitor the biochemical parameter such as blood sugar level, hematocrit, CO2 concentration, oxygen partial pressure, pH, blood pressure and etc. In addition, cerebral blood flow in cortex was determined by laser doppler fluorometry (Neuroscience.inc: OMEGA FLOW (FLO-C1)), putting the detection site directly on cranium on the point left 4 mm from bregma. Left neck of such animal was incised, and from internal and external carotid fork of common carotid artery to upstream of internal carotid, nylon surgical thread (length 16 mm, diameter 0.2 to 0.3 mm, with silicon coating on its tip 3 mm) was passed and left, middle cerebral artery was obstructed for 2 hours. After that, the thread was removed to release the middle cerebral artery, and blood was reperfused for 21 hours. To each animals, 3.0 mg/kg of edaravone (control) and 5.58 mg/kg of TM-2002 were respectively administered twice by cannula which is left in caudal artery 5 minutes and 5 hours after middle cerebral artery occlusion. After said operation, the brain was removed from said animal, and after preparing 7 brain slices with 2 mm thickness, to TTC stain (0.8 g of 2,3,5-triphenyltetrazolium chloride (Sigma) dissolved in 40 ml of saline) were soaked at 37° C. for 15 minutes to stain, the area of infarction and fixed by 10% neutral formalin liquid to prepare specimen. Such specimens were created the image by CCD camera respectively, and analysed according to method of Swanson et al. (J Cereb Blood Flow Metab 10:290-293; 1994). […] Furthermore, function recovering was estimated before and after the operation by rotor rod test that estimates how much they can walk on rotating rotor.

[2] = tested on: pentosidine; experiment: Pentosidine production inhibiting effect with BSA and arabinose; assay type: biochemical; conditions: BSA and arabinose instead of plasma
Protocol: Fresh heparinized plasma samples were obtained after informed consent from hemodialysis patients prior to the dialysis session, and filtrated and sterilized. To the plasma (450 μL), there was added the solution of TM-2002 in dimethylsurphoxide (50 μL) (final concentration: 0.8, 2.0, 5.0 mM) incubated at 37° C. for one week. Then, the amount of pentosidine was measured.
Measurement of the amount of pentosidine was made as follows: to each incubated sample (50 μL) was added an equal volume of 10% trichloroacetic acid, followed by centrifugation at 5000 g for 5 minutes; after removal of the supernatant, the pellet was washed by 5% trichloroacetic acid (300 μL); the pellet was dried under reduced pressure and then subjected to hydrolysis in 6N HCl solution (100 μL) at 110° C. under nitrogen atmosphere for 16 hours; to the hydrolysate, 5N NaOH (100 μL) and 0.5 M phosphate buffer (pH 7.4) (200 μL) were added, followed by filtration through a porefilter with a pore size of 0.5 μm and dilution with PBS. The concentration of free pentosidine was determined by reversed-phase HPLC using a fluorescence detector (Miyata, T. et al.: Proc. Natl. Acad. Sci. USA, Vol. 93, p. 2353-2358, 1996). The effluent was monitored at 335/385 nm of excitation/emission wavelength. Synthetic pentosidine was used as the standard. The detection limit of pentosidine was 0.1 pmol/mg protein.
The plasma from patients was substituted to BSA and arabinose, and the pentosidine production inhibiting effect of another compounds (I) or (II) was measured in the same manner as [Test Examination 1]. Therein, “-” means that the examination was not carried out.

| Compound | Pentosidine production rate in 5 mM of medicament (%) [2] [%] | further results |
| --- | --- | --- |
| CC1=NN(c2ccccc2)C(=O)C1 [Edaravone, 3-methyl-1-phenyl-2-pyrazolin-5-one, reference compound] |  | cerebral infarction nest ([1]; 2 hours occlusion, 21 hours reperfusion, edaravone 3.0 mg/kg, TM-2002 5.58 mg/kg, twice (5 minutes and 5 hours after occlusion), vs excipient): significantly reduced; Nervous condition estimation test, Ave (grading system of Bederson et al.) ([1]; after occlusion 10 min): 2.8; Nervous condition estimation test, Ave (grading system of Bederson et al.) ([1]; after occlusion 2 hrs): 2.7; Nervous condition estimation test, Ave (grading system of Bederson et al.) ([1]; after reperfusion 10 min): 2.2; Nervous condition estimation test, Ave (grading system of Bederson et al.) ([1]; after reperfusion 3 hrs): 2.1; Nervous condition estimation test, Ave (grading system of Bederson et al.) ([1]; after reperfusion 4 hrs): 2.0; Nervous condition estimation test, Ave (grading system of Bederson et al.) ([1]; after reperfusion 22 hrs): 1.5; rotor rod test, Ave (reading value of count from rotor rod machine) ([1]; before occlusion): 197.0; improvement for nervous condition and recovering the function ([1]; compared to excipient single administration): remarkably shown; rotor rod test, Ave (reading value of count from rotor rod machine) ([1]; reperfusion): 153.1; rotor rod test, ratio to before occlusion (%), Ave [1]: 160.4% |
| Cc1ncc2c(c1O)C(c1c(C)nn(-c3ccccc3)c1O)OC2 (stereo not drawn) [TM-3001, 1-(5-hydroxy-3-methyl-1-phenyl-1H-pyrazol-4-yl)-6-methyl-1,3-dihydro-furo[3,4-c]pyridin-7-ol] |  | Nervous condition estimation test, Ave (grading system of Bederson et al.) ([1]; after occlusion 10 min): 2.8; Nervous condition estimation test, Ave (grading system of Bederson et al.) ([1]; after occlusion 2 hrs): 2.6; Nervous condition estimation test, Ave (grading system of Bederson et al.) ([1]; after reperfusion 10 min): 1.5; Nervous condition estimation test, Ave (grading system of Bederson et al.) ([1]; after reperfusion 3 hrs): 1.3; Nervous condition estimation test, Ave (grading system of Bederson et al.) ([1]; after reperfusion 4 hrs): 2.0; Nervous condition estimation test, Ave (grading system of Bederson et al.) ([1]; after reperfusion 22 hrs): 2.0; rotor rod test, Ave (reading value of count from rotor rod machine) ([1]; before occlusion): 183.4; rotor rod test, Ave (reading value of count from rotor rod machine) ([1]; reperfusion): 160.6; rotor rod test, ratio to before occlusion (%), Ave [1]: 78.1% |
| CC1=NN(c2ccc(Cl)cc2)C(=O)/C1=C/c1cccc(O)c1 [compound 43, 2-(4-chloro-phenyl)-4-(3-hydroxy-benzylidene)-5-methyl-2,4-dihydropyrazol-3-one] | 3.00 |  |
| CC1=NN(c2ccc(C)cc2)C(=O)/C1=C/c1ccc(O)c(O)c1 [compound 44, 4-(3,4-dihydroxy-benzylidene)-5-methyl-2-p-toluyl-2,4-dihydro-pyrazol-3-one] | 66.19 |  |
| CC(=O)c1ccc(N2N=C(C)/C(=C3\C(=O)Nc4ccccc43)C2=O)cc1 [compound 45, 3-[1-(4-acetyl-phenyl)-3-methyl-5-oxo-1,5-dihydro-pyrazol-4-ylidene]-1,3-dihydro-indol-2-one] | 19.22 |  |
| CC1=NN(c2ccc(F)cc2)C(=O)/C1=C\c1c(C)nn(-c2ccccc2C)c1O [compound 46, 2-(4-fluoro-phenyl)-4-(5-hydroxy-3-methyl-1-o-toluyl-1H-pyrazol-4-yl-methylene)-5-methyl-2,4-dihydro-pyrazol-3-one] | 15.69 |  |
| COc1cc(/C=C2\C(=O)N(c3ccc(Cl)cc3)N=C2C(F)(F)F)ccc1O [compound 47, 2-(4-chloro-phenyl)-4-(4-hydroxy-3-methoxy-benzylidene)-5-trifluoromethyl-2,4-dihydro-pyrazol-3-one] | 28.86 |  |
| CCc1ccc(N2N=C(C)/C(=C\c3ccc(O)cc3)C2=O)cc1 [compound 48, 2-(4-ethyl-phenyl)-4-(4-hydroxy-benzylidene)-5-methyl-2,4-dihydro-pyrazol-3-one] | 0.02 |  |
| CC1=NN(c2ccc(S(N)(=O)=O)cc2)C(=O)C1=Cc1ccc(O)cc1 [compound 49, 4-[4-(4-hydroxy-benzylidene)-3-methyl-5-oxo-4,5-dihydro-pyrazol-1-yl]-benzenesulfonamide] | 7.09 |  |
| CCOC(=O)c1ccc(N2N=C(C(F)(F)F)/C(=C/c3cccs3)C2=O)cc1 [compound 50, 4-(5-oxo-4-thiophene-2-yl-methylene-3-trifluoromethyl-4,5-dihydro-pyrazol-1-yl)-benzoic acid-ethyl ester] | 63.17 |  |
| CN(C)c1ccc(/C=C2\C(=O)N(c3ccc(S(N)(=O)=O)cc3)N=C2C(F)(F)F)cc1 [compound 51, 4-[4-(4-dimethylamino-benzylidene)-5-oxo-3-trifluoromethyl-4,5-dihydro-pyrazole-1-yl]-benzenesulfonamide] | 41.68 |  |
| O=C1/C(=C\c2ccc(O)cc2)C(C(F)(F)F)=NN1c1ccccc1 [compound 53, 4-(4-hydroxy-benzylidene)-2-phenyl-5-trifluoromethyl-2,4-dihydro-pyrazol-3-one] | 66.76 |  |
| CC1=NN(c2ccc(C)c(C)c2)C(=O)/C1=C\c1ccc(O)cc1O [compound 54, 4-(2,4-dihydroxy-benzylidene)-2-(3,4-dimethyl-phenyl)-5-methyl-2,4-dihydro-pyrazol-3-one] | 73.48 |  |
| COc1ccc(/C=C2/C(=O)N(c3ccccc3)N=C2C)c(OC)c1O [compound 59, 4-(3-hydroxy-2,4-dimethoxy-benzylidene)-5-methyl-2-phenyl-2,4-dihydro-pyrazol-3-one] | 5.3 |  |
| COc1cc(/C=C2/C(=O)N(c3ccc(C(=O)OC(C)C)cc3)NC2C)ccc1O (stereo not drawn) [compound 60, 4-[4-(4-hydroxy-3-methoxy-benzylidene)-3-methyl-5-oxo-pyrazolidin-1-yl]-benzoic acid-isopropyl ester] | 9.02 |  |
| COc1cc(/C=C2/C(=O)N(c3ccc(Cl)c(C(=O)O)c3)N=C2C)c(Cl)cc1O [compound 61, 2-chloro-5-[4-(2-chloro-4-hydroxy-5-methoxy-benzylidene)-3-methyl-5-oxo-4,5-dihydro-pyrazol-1-yl]-benzoic acid] | 46.25 |  |
| CC1=NN(c2ccccc2)C(=O)/C1=C/N(C)C [compound 65, 4-dimethylaminomethylene-5-methyl-2-phenyl-2,4-dihydro-pyrazol-3-one] | 62.43 |  |
| CC1=NN(c2ccccc2)C(=O)/C1=C/c1c(C)nn(-c2ccccc2)c1O [compound 66, 4-(5-hydroxy-3-methyl-1-phenyl-1H-pyrazol-4-yl-methylene)-5-methyl-2-phenyl-2,4-dihydro-pyrazol-3-one] | 15.17 |  |
| CC1=NN(c2ccccc2)C(=O)/C1=C/c1ccc(Cl)cc1 [compound 67, 4-(4-chloro-benzylidene)-5-methyl-2-phenyl-2,4-dihydro-pyrazol-3-one] | 9.09 |  |
| CC1=NN(c2ccccc2)C(=O)/C1=C/c1ccc(O)cc1 [compound 70, 4-(4-hydroxy-benzylidene)-5-methyl-2-phenyl-2,4-dihydro-pyrazol-3-one] | 0.04 |  |
| CC1=NN(c2cccc(Cl)c2)C(=O)/C1=C/c1ccc(O)cc1 [compound 71, 2-(3-chloro-phenyl)-4-(4-hydroxy-benzylidene)-5-methyl-2,4-dihydropyrazol-3-one] | 4.63 |  |
| CC1=NN(c2ccccc2)C(=O)/C1=C/c1ccc(OCc2ccccc2)cc1 [compound 72, 4-(4-benzyloxy-benzylidene)-5-methyl-2-phenyl-2,4-dihydropyrazol-3-one] | 7.63 |  |
| CC1=NN(c2cccc(Cl)c2)C(=O)/C1=N/O [compound 73, 2-(3-chloro-phenyl)-5-methyl-2H-pyrazol-3,4-dione 4-oxym] | 66.42 |  |
| CCOC(=O)C1=NN(c2ccccc2)/C(=C2\C(=O)N(c3ccccc3)N=C2c2ccccc2)S1 [compound 74, 5-(5-oxo-1,3-diphenyl-1,5-dihydro-pyrazol-4-ylidene)-4-phenyl-4,5-dihydro-[1,3,4]thiazole-2-carboxilic acid-ethyl este] | 87.24 |  |
